Experiment: xn = mol fraction of the nth substance listed
Settings: 101.3 kPa

CC(=O)[O-].CN1CCCN2CCC[NH+]=C12 + O
viscosity [mPa·s]
Settings	x1 = 0.103	x1 = 0.206	x1 = 0.301	x1 = 0.405	x1 = 0.494	x1 = 0.604
278.2 K	46	329	945	–	2689	3358
283.2 K	–	–	554	1023.1	–	1825.2
288.2 K	24.1	131.4	340	609	873	1046.1
293.2 K	18.1	87.9	217.7	–	533	629
298.2 K	13.9	61.2	–	244.9	–	396
303.2 K	10.9	43.9	–	164.9	224.5	–
308.2 K	8.77	–	–	114.8	153.9	176.1
313.2 K	7.19	24.72	–	82.4	–	123.6
318.2 K	5.94	19.23	–	60.6	–	89.4
323.2 K	4.99	15.23	30	45.8	59.3	–
328.2 K	4.24	12.3	23.57	35.39	45.37	50.43
333.2 K	3.65	–	18.81	27.89	35.43	39.17
338.2 K	3.15	8.44	15.29	22.37	–	31.03
343.2 K	–	7.12	12.65	18.24	22.81	25.01
348.2 K	2.45	6.08	10.59	15.11	18.74	20.47
353.2 K	2.19	5.25	–	12.66	15.61	16.99
358.2 K	–	–	7.69	10.74	13.17	–
363.2 K	1.78	4	6.66	9.21	11.24	–
368.2 K	–	3.54	5.83	7.98	9.68	–
373.2 K	–	3.17	–	6.97	8.42	–
